Experimental data as given in patent publication US20030176689A1, “Inhibitors of hepatitis C virus protease” (priority 2001, published 2003).
Square brackets hold non-standard residues; d marks the D form. Ends that are not written are not given here. Peptide text beside a SMILES is read from it. Cha = N[C@@H](CC1CCCCC1)C(=O)O; Pen = CC(C)(S)[C@H](N)C(=O)O

Experiments:
[1] = biological target: NS3 protease (Hepatitis C virus genotype 1a, UniProt P27958); experiment: Rates of NS3 in the presence of short NS4A peptides; type: biochemical, HCV; conditions: substrate 5A-pNA subsaturating; 66 to 360 μM peptide
Description: The ability of the short peptides to activate the NS3 protease was tested at several concentrations between 66 and 360 μM peptide. The concentration of substrate 5A-pNA was subsaturating.

[2] = biological target: NS3 and wt NS4A (Hepatitis C virus genotype 1a, UniProt P27958); experiment: Inhibition of cleavage of 5A-pNA by NS3 and wt NS4A; type: biochemical, HCV; conditions: for inhibition of cleavage of 5A-pNA by NS3 and wt NS4A: FIG. 12
Description: Again, lower case letters indicate the D-amino acid. Cha represents cyclohexylalanine. The peptides were assayed for inhibition of cleavage of 5A-pNA by NS3 and wt NS4A.

[3] = biological target: T1, HCV NS3 protease domain (Hepatitis C virus genotype 1a, UniProt P27958); experiment: FAC-MS (frontal affinity chromatography with in-line MS) binding to immobilized NS3
T1 construct: immobilization of the NS3 protease domain on streptavidin coated beads; made in house; host or cells: E. coli
Excerpt: An assay using frontal affinity chromatography (FAC) with an in-line mass spectrometer (MS) as described by Schriemer et al. 1998 Agnew. Chem. Int. Ed. 37, 3383-3387 (referred to as FAC-MS) was adapted to identify NS3 protease inhibitors. Briefly, a HCV NS3 protease domain was cloned into a site in a vector that allows for the recombinant NS3 protein to be biotinylated when expressed in E. coli. This provides for immobilization of the NS3 protease domain on streptavidin coated beads which are packed into a miniaturized column. The column is connected in-line to a mass spectrometer. This arrangement facilitates assaying combinatorial compounds individually from a library of peptides for activity in binding the immobilized NS3 protease domain. As the library is continually infused through the column, each compound produces a sigmoidal curve as its elution profile.
The inventors first examined the ability of mutant NS4A peptides to bind to NS3 using the FAC-MS assay described in Example 1. The sequence of the peptides described here is described by the wild-type residue modified, the position of the residue in the wildtype NS4A polypeptide, and the residue substituted at that position. […] “Pen” refers to Penacillamine; “chA” refers to β-cyclohexylalanine; “t” refers to “tert” (so that, for example, “t-L” refers to tert-leucine. […]

[4] = biological target: T2, NS3 (Hepatitis C virus genotype 1a, UniProt P27958); experiment: Activation of NS3 by mutant NS4A peptides using 5A-pNA as the substrate; type: biochemical, HCV; conditions: for kcat: substrate 5A-pNA, extrapolated to infinite NS4A concentration
Description: (§1) Binding of the peptides was then analyzed by enzyme kinetics to detect whether the mutated NS4A peptides activated NS3-catalysed cleavage of substrates individually. Two NS3 substrates were used: 5ApNA (which contains the P side residues (six of them) of the substrate linked to para-nitroaniline) and 5A/5B (which is the natural cleavage junction that is found between the NS5A and NS5B proteins) using conventional methods (see, e.g., Landro et. al. 1997, Biochemistry 36 p9340-9348; and “Enzyme Kinetics” by Irwin Segel pub: Wiley and Sons, New York 1975 Chapter 5). Values in the tables were obtained by extrapolating the Km and kcat values obtained for substrates at several concentrations of NS4A mutant peptides to infinite NS4A concentration. The Km and kcat values were obtained from double reciprocal plots of initial velocity measurements made at several concentrations of substrate and a constant NS4Aconcentration. Peptide concentrations used in calculations in Table 3 are based on those supplied by the facility that synthesized the peptides at the inventors' direction.

[5] = biological target: T2, NS3; experiment: Activation of NS3 by mutant NS4A peptides using 5A/5B as the substrate; type: biochemical, HCV; conditions: substrate 5A/5B; NS3 batch used for wild-type and V23 mutant peptides
Description: as §1

[6] = system: HCV; conditions: PBMCs from an HCV-infected patient, 4 days, NS3 Western blot; preliminary, first experiment
Description: This induces production of HCV in these cells. The PBMCs were grown in the presence of varying concentrations of Peptides 1, 3, or 5 for 4 days, and then harveted, lysed, and analyzed by SDS-PAGE followed by Western blot using monoclonal antibodies that specifically bind HCV NS3 protease. The blots were then stripped and probed with antibodies for SHP-1 as a loading control.

T1 sequence (P27958 1027-1208): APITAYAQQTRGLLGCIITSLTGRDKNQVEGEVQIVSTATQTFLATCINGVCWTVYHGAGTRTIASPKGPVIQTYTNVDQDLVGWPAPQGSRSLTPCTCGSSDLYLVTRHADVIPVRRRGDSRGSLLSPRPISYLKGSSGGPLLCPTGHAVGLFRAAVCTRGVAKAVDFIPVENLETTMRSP
T2 sequence (P27958 1027-1207): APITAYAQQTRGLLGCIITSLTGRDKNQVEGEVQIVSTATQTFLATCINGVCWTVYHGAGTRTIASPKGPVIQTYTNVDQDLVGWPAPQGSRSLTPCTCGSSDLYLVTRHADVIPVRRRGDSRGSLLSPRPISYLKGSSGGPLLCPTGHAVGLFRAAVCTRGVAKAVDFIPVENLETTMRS
NS3 and wt NS4A, sequence (P27958 1027-1207): as above
NS3 protease, sequence (P27958 1027-1207): as above

Compound | Rate [1] | Kd [3] | kcat [4] | also measured
KKGSVVIVGRIVLSGK [Wild-type, KKGSVVIVGRIVLSGK, reference compound] | 37.4 µmol/min/mg | – | – | –
FFW(Cha)vR(Cha)-NH2 [Peptide 5] | – | – | – | precipitation in the reaction mixture [2]: caused precipitation in the reaction mixture; inhibition of cleavage of 5A-pNA by NS3 and wt NS4A [2]: inhibited this reaction
IVGRIVL [IVGRIVL] | 1.80 µmol/min/mg | 103 µM | – | –
VIVGRIVL [VIVGRIVL] | 1.76 µmol/min/mg | 88 µM | – | –
CC[C@H](C)[C@H](NC(=O)[C@H](CCCNC(=N)N)NC(=O)CNC(=O)[C@@H](NC(=O)[C@@H](NC(=O)[C@@H](NC(=O)[C@@H](NC(=O)[C@H](CO)NC(=O)CNC(=O)[C@H](CCCCN)NC(=O)[C@@H](N)CCCCN)C(C)(C)S)C(C)C)[C@@H](C)CC)C(C)C)C(=O)N[C@H](C(=O)N[C@@H](CC(C)C)C(=O)N[C@@H](CO)C(=O)NCC(=O)N[C@@H](CCCCN)C(=O)O)C(C)C [Peptide V23Pen] (H-KKGS[Pen]VIVGRIVLSGK-OH; N-terminus and C-terminus assumed) | – | 4.7 µM | 0.0145 ± 0.0015 s⁻¹ | kcat [5]: 0.113 ± 0.01 s⁻¹
VVIVGRI [VVIVGRI] | 1.88 µmol/min/mg | 103 µM | – | –
Ac-DEMEED-OH [Ac-DEMEED-OH] | – | – | – | FAC-MS elution profile (late elution indicates NS3 binding) ([3]; Ac-DEMEEX-OH library randomized at P1, FIG. 2): eluted very late; FAC-MS elution time with a known protease inhibitor added to the library ([3]; competitive assay, FIG. 3): shifted forward
CC[C@H](C)[C@H](NC(=O)[C@H](CC1CCCCC1)NC(=O)[C@H](CCCNC(=N)N)NC(=O)[C@H](NC(=O)[C@H](CC1CCCCC1)NC(=O)[C@@H](N)CCCNC(=N)N)C(C)C)C(=O)N[C@@H](CC1CCCCC1)C(N)=O [Peptide 3, R(Cha)vR(Cha)I(Cha)-NH2] (H-R[Cha][dV]R[Cha]I[Cha]-NH2; N-terminus assumed) | – | – | – | IC50 [2]: 163 ± 5 µM; inhibition of cleavage of 5A-pNA by NS3 and wt NS4A [2]: inhibited this reaction; inhibition of replication of HCV in tissue culture [6]: inhibited replication of HCV in tissue culture
KKGSLVIVGRIVLSGK [Peptide V23L] | – | 5.1 µM | 0.0157 ± 0.00075 s⁻¹ | –
KKGSCVIVGRIVLSGK [Peptide V23C] | – | 4.8 µM | 0.0197 ± 0.00017 s⁻¹ | kcat [5]: 0.124 ± 0.00033 s⁻¹
W(Cha)vR(Cha)I(Cha)-NH2 [Peptide 1] | – | – | – | precipitation in the reaction mixture [2]: caused precipitation in the reaction mixture; inhibition of cleavage of 5A-pNA by NS3 and wt NS4A [2]: inhibited this reaction
KKGSFVIVGRIVLSGK [Peptide V23F] | – | 3.7 µM | 0.00782 ± 0.0005 s⁻¹ | FAC-MS elution (later elution = more tightly bound to NS3) ([3]; Val23 substituted NS4A peptides, FIG. 4): eluted last; activation of NS3 catalysed cleavage, rank among peptides mutated at the same position ([4]; position 23 or position 26 mutants): poorest; kcat [5]: 0.0883 ± 0.005 s⁻¹
VGRIVL | 1.70 µmol/min/mg | – | – | –
